Literature values in patent US20100143460A1, “SOLID DOSAGE FORMS COMPRISING ALISKIREN AND PHARMACEUTICALLY ACCEPTABLE SALTS THEREOF” (KRKA, TOVARNA ZDRAVIL, D.D., NOVO MESTO, priority 2007, published 2010).

Conditions: described in EP-A-1 517 682

- solubility in water: very readily soluble in water
Compound: COCCCOc1cc(C[C@@H](C[C@H](N)[C@@H](O)C[C@H](C(=O)NCC(C)(C)C(N)=O)C(C)C)C(C)C)ccc1OC [aliskiren]
